Results from patent US8470889B2 (TRT Pharma Inc., priority 2008, dated 2013).

Columns and labels:
[1] = test system: NF-κB-dependent luciferase activity induced by expression of IKKi, TBK1, IKKb and p65; experiment: NF-κB-dependent luciferase activity in HEK293 cells; format: cell-based; settings: 24 h, FIG. 11A-C
Description: Compound 10 inhibits IKKβ, IKKε and TBK1 and suppresses NF-κB activation. […] HEK293 cells were transiently transfected with NF-κB-Luc or ISRE-Luc, co-transfected with plasmid encoding IKKi, TBK1, IKKb, p65 or IRF3 (5D), using Lipofectamine™ 2000 reagent (Invitrogen). The transfected cells were treated with DMSO vehicle and test compounds at designated doses for 24 h. Luciferase activity was evaluated using Dual Luciferase Assay System (Promega) and expressed as fold of induction related to the basal level of the reporter gene after normalization with cotransfected Renilla relative light units.
Now referring to FIG. 18, the impact of compounds 10, and SC345, SC346 and SC347 on the NF-κB-dependent luciferase activity induced by expression of TBK1 and IKKβ. HEK293 cells were transiently transfected with NF-κB-Luc, co-transfected with plasmid encoding TBK1 or IKKβ, using Lipofectamine™ 2000 reagent (Invitrogen). The transfected cells were treated with DMSO vehicle and test compounds at 2.5 μM for 24 h. Luciferase activity was evaluated using Dual Luciferase Assay System (Promega) and expressed as fold of induction related to the basal level of the reporter gene after normalization with cotransfected Renilla relative light units.

HP-LNCaP cells = experiment: MTT cellular growth, HP-LNCaP; format: cell-based; settings: FIG. 10
Description: HP-LNCaP cells were grown in the androgen-depleted medium (FIG. 9A) and grow more aggressively than LNCaP cells in the whole medium (FIG. 9B). Cellular growth was evaluated by MTT assays. […] HP-LNCaP cells over-express AR protein (FIG. 10C).

Row | Compound | NF-κB-dependent luciferase activity induced by expression of IKKi, TBK1, IKKb and p65 [1] | activity against HP-LNCaP cells (HP-LNCaP cells)
1 | CC1(C)CCC(O)C=C1/C=C/C(=O)/C=C/c1csc2ccccc12 (centres unmarked) [Compound B92] | potent effects | 
2 | CC1(C)CCC(O)C=C1/C=C/C(=O)/C=C/c1cnc2ccccc2c1 (centres unmarked) [Compound B95] |  | remains active
